According to EP0802730B1, “PESTICIDAL COMPOUNDS” (BTG INTERNATIONAL LIMITED, priority 1995, dated 1996):
Converted amounts (≈) assume the structure as drawn. Where two headings read alike, the source gives them in different places.

Experiments:
Type in all cases: in vivo
[1] = tested on: Houseflies (MD) (Musca domestica); conditions: for MD LD50 (µg/insect): Tables 10, 13, 14, NA = lack of detectable activity
Description: Female flies were treated on the thorax with a one microlitre drop of test compound dissolved in acetone. Two replicates of 15 flies were used at each dose rate and 6 dose rates were used per compound under test. After treatment, the flies were maintained at a temperature of 20° ± 1°C and kill was assessed 24 and 48 hours after treatment. LD50 values were calculated in micrograms of test compound per fly (see Sawicki et al., Bulletin of the World Health Organisation, 35, 893 (1966) and Sawicki et al., Entomologia and Exp. Appli 10, 253, (1967).

[2] = tested on: Mites (TU) (Tetranychus urticae), susceptible strain (GSS); assay: Mite immersion test, susceptible strain GSS
Description: 25 adult female mites were immersed in 35 µl of a solution of the test compound in a 1:4 acetone-water mixture for 30 seconds. The treated insects were maintained at 21° ± 2°C and kill was assessed 72 hours after treatment. […] Three replicates of 25 mites each were used at each dose rate and 5 or 6 dose rates were used per compound under test. LC50 values were calculated in ppm of the solution of the test compound per insect. The test was carried out using a susceptible strain of mites (GSS) supplied by Schering, AG, Berlin.

[3] = tested on: Whitefly (BT) (Bemisia tabaci), susceptible strain (SUD-S); assay: Whitefly residual film vial test, susceptible strain SUD-S
Description: Acetone solutions (0.100 ml) of the test compounds were placed in 10 ml glass vials and evaporated with rotation to deposit a film of the compound. Thirty adult whiteflies were placed inside the vial, then after 60 minutes, the treated insects were transferred onto untreated cotton leaf discs which were kept moist on a bed of agar gel. The temperature was maintained at 25°C and mortality assessed after 48 hours. Three replicates were used at each of 5 to 7 dose levels per compound.

[4] = tested on: Myzus persicae, susceptible strain (US1L); assay: Aphid dip test, susceptible strain; conditions: read-out: MP % kill 100 ppm
Description: Activity against resistant (R) and susceptible (S) strains of aphid (Myzus persicae) was assessed using the following method.
Entrapment rings of fluon were painted halfway up the inside of 4 cm lengths of glass tubing (1.5 cm diameter), and squares of insect-proof gauze were attached to one end of each tube by elastic bands. Fifteen apterous adults were then gently transferred into the tubes using a sable-hair brush, and the tube sealed with a second gauze square.
Tubes containing aphids were dipped into insecticide solutions for 10 seconds, dried on blotting paper, and then inverted and tapped to cause treated aphids to fall to the unimmersed end of each tube. Handling mortality (usually zero or very slight) was scored after 1 hour, when aphids were transferred onto chinese cabbage leaf-discs (35 mm diameter) on an agar bed (25 mm in depth) in disposible plastic containers (30 mm high) and confined by applying a ring of fluon to the exposed lip of the container. Containers were store upright, without lids, in a constant environment facility maintained at 25°C under continuous room lighting. Mortality was assessed at 24, 48 and 72 hours. Two replicates of 15 aphids each were used at each dose rate and 5 or 6 dose rates were used per compound under test.
The test was carried out using a susceptible strain of aphids (US1L) collected in the field in East Anglia, UK and an extremely resistant strain of aphids (794Jz) (R3 esterase, sensitive AChE) collected from glasshouses in the UK.
The values given are % mortality corrected for control data. The control comprised the test solution without active ingredient.

[5] = tested on: Mustard beetles (PC) (Phaedon cochleariae Fab); conditions: for PC LD50 (µg/insect): Tables 10, 13, 14
Description: A one microlitre drop of an acetone solution of the test compound was applied ventrally to adult mustard beetles using a micro drop applicator. The treated insects were maintained for 48 hours after which time kill was assessed. Two replicates each of 20 to 25 mustard beetles were used at each dose level and 5 dose levels were treated comparably. LD50 values were calculated as for houseflies.

[6] = 72 h, Tables 10, 13, 14, susceptible strain, NA = lack of detectable activity, read-out: TU LC50 (ppm/insect)
[7] = 48 h, Tables 10, 13, 14, susceptible strain, NA = lack of detectable activity, read-out: BT LC50 (ppm/insect)
[8] = topical 1 µl drop in acetone on female flies, kill assessed 24 and 48 hours
[9] = 1 µl acetone drop applied ventrally to adults, kill at 48 hours, NA = lack of detectable activity
[10] = ppm solution of test compound, 30 seconds immersion, kill at 72 hours, read-out: TU(GSS) (LC50)
[11] = ppm solution of test compound, 60 minutes film exposure, mortality after 48 hours, read-out: BT(SUD-S) (LC50)
[12] = NA = lack of detectable activity

Compound | LC50 [2, 6] | LC50 [3, 7] | MD (LD50) [1, 8] | PC (LD50) [5, 9] | LC50 [2, 10] | PC LD50 (µg/insect) [5, 12] | further results
CC(C)(C)C=CCCCCC1=C(O)C(=O)c2ccccc2C1=O [Example 44, 2-(7,7-dimethyloct-5-enyl)-3-hydroxy-naphthalene-1,4-dione] | 4.3 µg/mL (≈ 13.8 µM) | ~100 µg/mL (≈ 320 µM) |  |  |  |  | MD LD50 (µg/insect) [1]: c10 µg/insect; mortality at 100 ppm [4]: ~100%
C=CC(C)(C)C1=C(OC(=O)C(C)C)C(=O)c2ccccc2C1=O [Example 10] |  |  | > 20 µg/insect | c. 6.0 µg/insect | 15 µg/mL (≈ 48 µM) |  | LC50 [3, 11]: 35 µg/mL (≈ 112 µM)
CCCCCCCCCCC1=C(O)C(=O)c2ccccc2C1=O [-(CH2)9CH3, reference compound] | 5.5 µg/mL (≈ 17.5 µM) | > 100 µg/mL |  |  |  | 1.9 µg/insect | 
C=CC(C)(C)C1=C(OC(=O)c2ccccc2)C(=O)c2ccccc2C1=O [Example 11] |  |  |  |  | ~50 µg/mL (≈ 144 µM) |  | 
CCCCCCCCCCCCCCC1=C(O)C(=O)c2ccccc2C1=O [-(CH2)13CH3, reference compound] | 1.3 µg/mL (≈ 3.51 µM) |  |  |  |  |  | 
CC1(C2=C(O)C(=O)c3ccccc3C2=O)CCCC1 [Example 24, 2-hydroxy-3-(1'-methylcyclopentyl)-naphthalene-1,4-dione] | 48 µg/mL (≈ 187 µM) | 33 µg/mL (≈ 129 µM) |  |  |  |  | mortality at 100 ppm [4]: 44%
CCCCCC1=C(O)C(=O)c2ccccc2C1=O [-(CH2)4CH3, reference compound] | 16 µg/mL (≈ 65.5 µM) | 17 µg/mL (≈ 69.6 µM) |  |  |  | c7 µg/insect | 
CC(C)(C)C=CC1=C(O)C(=O)c2ccccc2C1=O [Example 42, 2-(3,3-dimethyl-but-1-enyl)-3-hydroxy-naphthalene-1,4-dione] | ~100 µg/mL (≈ 390 µM) | 17 µg/mL (≈ 66.3 µM) |  |  |  | 3.6 µg/insect | 
CC(C)(C)C1CCC(C2=C(O)C(=O)c3ccccc3C2=O)CC1 (centres unmarked) [Compound B, 2-hydroxy-3-(4-t-butylcyclohexyl)-naphthalene-1,4-dione, reference compound] |  |  |  |  |  |  | MD (LD50) ([1]; house fly, in vivo): 15.5; PC (LD50) ([5]; mustard beetle, in vivo, 2880 min): 0.53; LC50 ([2]; 72 h, text b201, no unit printed there, read-out: TU (GSS) LC50): 44 µg/mL (≈ 141 µM); LC50 ([3]; 48 h, text b201, no unit printed there, read-out: BT(SUD-S) LC50): 18 µg/mL (≈ 57.6 µM)
CC(C)(C)CC1=C(O)C(=O)c2ccccc2C1=O [Example 35, 2-(2,2-dimethylpropyl)-3-hydroxy-naphthalene-1,4-dione] |  | ~12 µg/mL (≈ 49.1 µM) |  |  |  | 4.6 µg/insect | MD LD50 (µg/insect) [1]: 1.2 µg/insect
CCCC(C)(C)C1=C(OC(=O)CC)C(=O)c2ccccc2C1=O [Example 17] |  |  | 14 µg/insect |  | 50 µg/mL (≈ 159 µM) |  | 
C=CC(C)(C)C1=C(OC(=O)CF)C(=O)c2ccccc2C1=O [Example 9] |  |  |  | 0.41 µg/insect |  |  | LC50 ([2]; 72 h, read-out: TU(GSS) (LC50)): 140 µg/mL (≈ 463 µM); LC50 ([3]; 48 h, read-out: BT(SUD-S) (LC50)): 13.4 µg/mL (≈ 44.3 µM)
CCCCCC(C)(C)C1=C(O)C(=O)c2ccccc2C1=O [Example 18] |  |  | 13 µg/insect | c. 15 µg/insect | ~100 µg/mL (≈ 349 µM) |  | LC50 [3, 11]: 10 µg/mL (≈ 34.9 µM)
C=CC(C)(C)C1=C(OC(=O)CCCCC)C(=O)c2ccccc2C1=O [Example 7] |  |  | > 20 µg/insect | c. 6.0 µg/insect | 53 µg/mL (≈ 156 µM) |  | LC50 [3, 11]: < 100 µg/mL
CCCC(C)(C)C1=C(O)C(=O)c2ccccc2C1=O [Example 16] |  |  | 8.8 µg/insect | c. 10 µg/insect | 91 µg/mL (≈ 352 µM) |  | LC50 [3, 11]: 10 µg/mL (≈ 38.7 µM)
CCCCCCCCC1=C(O)C(=O)c2ccccc2C1=O [-(CH2)7CH3, reference compound] | ~1000 µg/mL (≈ 3490 µM) | 19 µg/mL (≈ 66.3 µM) |  |  |  | 0.78 µg/insect | MD LD50 (µg/insect) [1]: 1.9 µg/insect
